Measured values from patent US8022208B2, “Benzene derivative or salt thereof” (Astellas Pharma Inc., priority 2005, dated 2011).

How the values were obtained:
human plasma = experiment: Extrinsic coagulation time (PT) in human plasma; conditions: HemosIL RecombiPlasTin
Procedure: 3) Extrinsic Coagulation Time (PT):
2 μl of a test compound dissolved in DMSO or DMSO alone, and 50 μl of physiological saline were added to 50 μl of human plasma warmed at 37° C. for 1 minute, then 100 μl of HemosIL RecombiPlasTin (Instrumentation Laboratory) was added, and the coagulation time was measured. For measuring the coagulation time, used was Amelung's KC10A. The CT2 value (the concentration for 2-fold prolongation of the coagulation time with DMSO) was calculated through linear regression, by plotting the relative value (fold) of the coagulation time to the control and the test compound concentration.

human factor Xa = molecular target: T1, human factor Xa (Homo sapiens, UniProt P00742); experiment: Enzyme inhibition by synthetic substrate method (S-2222); format: biochemical; conditions: human factor Xa 0.025 U/ml, synthetic substrate S-2222, pH 8.4, 37° C., 10 minutes
T1 construct: purchased Enzyme Research Labs
T1 sequence (P00742 235-488 limits assumed): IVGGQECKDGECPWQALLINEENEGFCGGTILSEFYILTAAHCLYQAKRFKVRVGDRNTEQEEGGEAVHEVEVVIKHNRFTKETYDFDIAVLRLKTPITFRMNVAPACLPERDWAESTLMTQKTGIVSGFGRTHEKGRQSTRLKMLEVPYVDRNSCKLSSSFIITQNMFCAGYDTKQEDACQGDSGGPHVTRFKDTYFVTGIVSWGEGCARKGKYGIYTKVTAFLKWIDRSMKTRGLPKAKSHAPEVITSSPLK
T1 sequence (P00742 41-179 partner limits assumed): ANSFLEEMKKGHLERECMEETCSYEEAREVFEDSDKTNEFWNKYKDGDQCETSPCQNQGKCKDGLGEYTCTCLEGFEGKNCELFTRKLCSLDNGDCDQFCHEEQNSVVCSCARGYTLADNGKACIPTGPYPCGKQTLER
Procedure: 2) Test of Measuring Enzyme Inhibition by Synthetic Substrate Method:
25 μl of a reaction buffer (pH 8.4), 5 μl of a test compound dissolved in DMSO or DMSO alone, and 10 μl of a synthetic substrate, 2 mM S-2222 (Chromogenix) were added to a 96-well microplate, then 10 μl of 0.025 U/ml human factor Xa was added thereto, and reacted at 37° C. for 10 minutes, and then the absorbance change at 405 nm was measured with Molecular Devices' Spectramax 340PC^384, and the IC50 value was calculated.

mouse plasma = experiment: Ex vivo coagulation time with mice (oral administration), extrinsic coagulation time (PT); format: in vivo, male ICR mice; conditions: oral 100 mg/kg, 30 minutes after administration
Procedure: 4) Test of Measuring Ex Vivo Coagulation Time with Mice (Oral Administration):
To test animals of male ICR mice (body weight, about 40 g, SLC) that had been fasted for 12 hours or longer, a solution or suspension of a test compound dissolved in 0.5% methyl cellulose was forcedly orally administered (100 mg/kg), using a feeding needle; and after 30 minutes and after 2 hours, under anesthesia with diethyl ether, 1 ml of blood was collected from the mice through their postcaval vein in 3.8% sodium citrate to be 1/10 by volume, and centrifuged at 12000 rpm for 3 minutes to separate plasma therefrom. The extrinsic coagulation time (PT) and the intrinsic coagulation time (APTT) for this plasma were measured according to the following methods a) and b).
a) Extrinsic Coagulation Time (PT):
50 μl of the mouse plasma was warmed at 37° C. for 1 minute, and 100 μl of HemosIL RecombiPlasTin was added, and the coagulation time was counted. For measuring the coagulation time, used was Amelung's KC10A. The mouse plasma coagulation time with no test compound administration was control; and the coagulation time prolonging activity of the test compound was represented by a relative value to the control, 1.

IC50 (human factor Xa) [nM] | SMILES | CT2 value (the concentration for 2-fold prolongation of the coagulation time with DMSO) (human plasma) [µM] | coagulation time prolonging activity (relative value to the control, 1) (mouse plasma) [times]
6.7 | Cl.Cn1ccc(=O)c(-c2ccc(C(=O)Nc3c(O)cccc3C(=O)Nc3ccc(Cl)cn3)cc2)c1 [Example 1, N-(5-chloropyridin-2-yl)-3-hydroxy-2-{[4-(1-methyl-4-oxo-1,4-dihydropyridin-3-yl)benzoyl]amino}benzamide hydrochloride] | 0.34 | –
– | CN(C)CCn1cccc(-c2ccc(C(=O)Nc3c(O)cccc3C(=O)Nc3ccc(Cl)cn3)cc2)c1=O.Cl [Example 10] | – | 3.3
8.3 | Cn1cccc(-c2ccc(C(=O)Nc3c(O)cccc3C(=O)Nc3ccc(Cl)cn3)cc2)c1=O [Example 30] | – | –
– | Cl.O=C(Nc1c(O)cccc1C(=O)Nc1ccc(Cl)cn1)c1ccc(-c2cccn(CCN3CCCOCC3)c2=O)cc1 [Example 42] | 0.65 | –
– | CN1CCC(OCCn2cccc(-c3ccc(C(=O)Nc4c(O)cc(Cl)cc4C(=O)Nc4ccc(Cl)cn4)cc3)c2=O)CC1.Cl [Example 78] | – | 3.9
